Values quoted from earlier work in patent US20130143845A1, “VITAMIN D COMPOUNDS AND METHODS FOR ENHANCING MUSCLE STRENGTH, AND PREVENTION AND TREATMENT OF DISEASE IN HUMAN BEINGS” (priority 2011, published 2013).
Where two headings read alike, the source gives them in different places.

Settings: in circulation

## C=C1/C(=C\C=C2/CCC[C@]3(C)[C@@H]([C@H](C)CCCC(C)(C)O)CC[C@@H]23)C[C@@H](O)C[C@@H]1O [1,25(OH)2D3, 1α,25-dihydroxyvitamin D3]
Prolonged by the invention (D3FACCPG), Lichtmann, personal communication
  half-life of 1,25(OH)2D3: approximately 12 hours
Without the invention (Holick, 2003)
  half-life of 1,25(OH)2D3: approximately 4 hours
